Data published in PubChem BioAssay AID743341 (Broad Institute, 2014).
Records with an inconclusive call do not appear. The source made the active and inactive calls.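 How the source made its calls: active means fitted curve of myotube length rescue reaches 40% at or below the top valid tested dose in every replicate test; inconclusive means replicate tests give mixed outcomes; inactive means every replicate test inactive, including effects in the opposite direction.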

How the values were obtained:
[1] = suppression of statin-driven myotube degradation – imaging, C2C12 myotubes, MHC immunostaining, dry powder, orthogonal assay for statin myotoxicity suppressor project, confirmation (AID 743341); details: C2C12 myotubes + simvastatin, MHC imaging tube length, 48 h
[2] = system: C2C12 myotubes + simvastatin, MHC imaging tube length, 48 h; assay: as above

N#C[C@@H]1[C@@H](c2ccccc2-c2cccc(F)c2)[C@H](CO)N1C(=O)NC1CCCC1
rescue of myotube length ([1]; at 19.5 µM (top of the series)): 10.7% (inactive)

C[C@H]1CN([C@@H](C)CO)C(=O)c2cc(NC(=O)Nc3cccc4ccccc34)ccc2O[C@H]1CN(C)Cc1ccc(C(=O)Nc2ccccc2N)cc1
rescue of myotube length ([1]; at 19.5 µM (top of the series)): 13.4% (inactive)

COc1ccc(S(=O)(=O)Nc2ccc3c(c2)CC(=O)N([C@H](C)CO)C[C@@H](C)[C@H](CN(C)CC2CCCCC2)O3)cc1
rescue of myotube length ([1]; at 19.5 µM (top of the series)): -8.93% (inactive)

N#C[C@@H]1[C@@H](c2ccc(C#CC3CCCC3)cc2)[C@H](CO)N1S(=O)(=O)c1ccccc1
rescue of myotube length ([1]; at 21 µM (top of the series)): 4.55% (inactive)

Cc1noc(C)c1S(=O)(=O)Nc1ccc2c(c1)CC(=O)N([C@H](C)CO)C[C@H](C)[C@@H](CN(C)Cc1ccc(C(F)(F)F)cc1)O2
rescue of myotube length ([1]; at 19.5 µM (top of the series)): -1.01% (inactive)

C[C@H]1CN([C@@H](C)CO)C(=O)Cc2cc(NC(=O)Nc3cccc4ccccc34)ccc2O[C@H]1CN(C)Cc1ccc(C(=O)Nc2ccccc2N)cc1
AC40 [2]: 4.57 µM

C[C@@H]1CN([C@@H](C)CO)C(=O)c2cc(NC(=O)Nc3cccc4ccccc34)ccc2O[C@@H]1CN(C)Cc1ccc(C(=O)Nc2ccccc2N)cc1
rescue of myotube length ([1]; at 21 µM (top of the series)): 20.8% (inactive)

N#C[C@H]1[C@@H](c2ccc(-c3cccc(F)c3)cc2)[C@H](CO)N1C(=O)NC1CCCC1
rescue of myotube length ([1]; at 19.5 µM (top of the series)): 8.46% (inactive)

CCCNC(=O)N1[C@@H](C#N)[C@@H](c2ccc(-c3ccccc3F)cc2)[C@@H]1CO
rescue of myotube length ([1]; at 21 µM (top of the series)): -2.07% (inactive)

N#C[C@H]1N[C@@H](CO)[C@@H]1c1ccc(-c2cccc(F)c2)cc1
rescue of myotube length ([1]; at 21 µM (top of the series)): 8.43% (inactive)

N#C[C@@H]1[C@@H](c2ccc(C3=CCCCC3)cc2)[C@H](CO)N1C(=O)NC1CCCC1
rescue of myotube length ([1]; at 19.5 µM (top of the series)): 9.82% (inactive)

C[C@H](CO)N1C[C@H](C)[C@H](CN(C)Cc2ccc(C(=O)Nc3ccccc3N)cc2)Oc2ccc(NC(=O)Nc3ccc(F)cc3)cc2CC1=O
AC40 [2]: 0.655 µM

N#C[C@@H]1[C@H](c2ccc(-c3cccc(F)c3)cc2)[C@@H](CO)N1C(=O)NC1CCCC1
rescue of myotube length ([1]; at 19.5 µM (top of the series)): 12.9% (inactive)

C[C@H](CO)N1C[C@H](C)[C@@H](CN(C)Cc2ccc(Cl)c(Cl)c2)Oc2ccc(NC(=O)C3CC3)cc2CC1=O
rescue of myotube length ([1]; at 19.5 µM (top of the series)): -6.48% (inactive)

C[C@H](CO)N1C[C@H](C)[C@H](CN(C)Cc2ccc(C(=O)Nc3ccccc3N)cc2)Oc2ccc(NC(=O)Nc3cccc4ccccc34)cc2C1=O
AC40 [2]: 5.9 µM

C[C@H]1CN([C@@H](C)CO)S(=O)(=O)c2ccc(C#CC3CC3)cc2O[C@H]1CN(C)C(=O)Nc1cc(F)ccc1F
AC40 [2]: 19.5 µM

C[C@H]1CN([C@@H](C)CO)C(=O)c2cc(C#Cc3ccncc3)cnc2O[C@@H]1CN(C)CC1CCCC1
AC40 [2]: 8.86 µM

CCCNC(=O)N1[C@H](CO)[C@H](c2ccccc2)[C@@H]1C#N
rescue of myotube length ([1]; at 19.5 µM (top of the series)): 1.19% (inactive)

Cc1ccc(S(=O)(=O)Nc2ccc3c(c2)CC(=O)N([C@@H](C)CO)C[C@@H](C)[C@H](CN(C)Cc2ccc(-c4ccccc4)cc2)O3)cc1
rescue of myotube length ([1]; at 19.5 µM (top of the series)): -2.54% (inactive)

CN1C(=O)c2cc(NC(=O)c3ccc(F)c(F)c3)ccc2OC[C@H]2O[C@@H](CC(=O)Nc3ccc4c(c3)COC4)CC[C@@H]21
rescue of myotube length ([1]; at 19.5 µM (top of the series)): 12.6% (inactive)

C[C@@H]1CN([C@H](C)CO)C(=O)c2cccc(NC(=O)Nc3ccc4c(c3)OCO4)c2O[C@H]1CN(C)Cc1ccc(C(=O)Nc2ccccc2N)cc1
AC40 [2]: 0.76 µM

C[C@@H]1CN([C@@H](C)CO)C(=O)c2cc(NC(=O)Cc3cn(C)c4ccccc34)ccc2O[C@@H]1CN(C)Cc1ccc(C(=O)Nc2ccccc2N)cc1
AC40 [2]: 10.5 µM

C/C=C/c1ccc([C@H]2[C@@H](CO)N(C(=O)NC3CCCC3)[C@H]2C#N)cc1
rescue of myotube length ([1]; at 19.5 µM (top of the series)): 12.4% (inactive)

COc1ccc(S(=O)(=O)N(C)C[C@H]2Oc3c(NC(=O)Nc4ccccc4)cccc3C(=O)N([C@H](C)CO)C[C@H]2C)cc1
rescue of myotube length ([1]; at 19.5 µM (top of the series)): 3.68% (inactive)

N#C[C@@H]1[C@@H](c2ccc(-c3cccc(F)c3)cc2)[C@@H](CO)N1C(=O)NC1CCCC1
rescue of myotube length ([1]; at 19.5 µM (top of the series)): 3.2% (inactive)

N#C[C@@H]1[C@@H](c2ccccc2)[C@H](CO)N1S(=O)(=O)c1ccc(-c2ccccc2)cc1
rescue of myotube length ([1]; at 21 µM (top of the series)): 13.9% (inactive)

CC(C)CC#Cc1cnc2c(c1)C(=O)N([C@H](C)CO)C[C@H](C)[C@@H](CN(C)C(=O)Cc1ccccc1)O2
rescue of myotube length ([1]; at 21 µM (top of the series)): -0.121% (inactive)

C[C@@H]1CN([C@H](C)CO)C(=O)Cc2cc(NC(=O)C3CCCCC3)ccc2O[C@H]1CN(C)Cc1ccc(Cl)c(Cl)c1
AC40 [2]: 7.84 µM

N#C[C@H]1[C@H](c2ccc(-c3cccc(F)c3)cc2)[C@H](CO)N1C(=O)NC1CCCC1
rescue of myotube length ([1]; at 19.5 µM (top of the series)): 14.9% (inactive)

C[C@H](CO)N1C[C@H](C)[C@H](CN(C)Cc2ccc3c(c2)OCO3)Oc2ccc(NC(=O)CCCCCC(=O)Nc3ccccc3N)cc2CC1=O
rescue of myotube length ([1]; at 18 µM (top of the series)): 19.7% (inactive)

CCCNC(=O)N1[C@H](C#N)[C@@H](c2ccc(C3=CCCCC3)cc2)[C@@H]1CO
rescue of myotube length ([1]; at 19.5 µM (top of the series)): 22.8% (inactive)

CC(C)=CCC/C(C)=C/CC/C(C)=C/CC/C(C)=C/CO
AC40 [2]: 4.25 µM

CCCC#Cc1ccc([C@H]2[C@@H](C#N)N(S(=O)(=O)c3cccc(F)c3)[C@H]2CO)cc1
rescue of myotube length ([1]; at 19.5 µM (top of the series)): 4.16% (inactive)

C[C@@H]1CN([C@@H](C)CO)C(=O)c2cc(NS(=O)(=O)c3ccc(Cl)cc3)ccc2O[C@H]1CN(C)C(=O)Nc1cccc2ccccc12
rescue of myotube length ([1]; at 19.5 µM (top of the series)): -1.68% (inactive)

O=C(C[C@H]1CC[C@@H]2[C@H](COC[C@@H](O)CN2Cc2ccc(Oc3ccccc3)cc2)O1)N1CCCCC1
rescue of myotube length ([1]; at 19.5 µM (top of the series)): 15.6% (inactive)

C[C@@H]1CN([C@H](C)CO)C(=O)Cc2cc(NS(=O)(=O)c3ccc(Cl)cc3)ccc2O[C@H]1CN(C)Cc1ccccc1
rescue of myotube length ([1]; at 19.5 µM (top of the series)): 0.917% (inactive)

C[C@H]1CN([C@@H](C)CO)C(=O)Cc2cc(NS(=O)(=O)c3ccc(Cl)cc3)ccc2O[C@@H]1CN(C)CC1CCCCC1
rescue of myotube length ([1]; at 21 µM (top of the series)): -32.7% (inactive)

COc1ccc(C#Cc2cnc3c(c2)C(=O)N([C@H](C)CO)C[C@H](C)[C@H](CN(C)Cc2ccccc2)O3)cc1OC
rescue of myotube length ([1]; at 19.5 µM (top of the series)): -10.4% (inactive)

N#C[C@H]1[C@@H](c2ccc(-c3cccc(F)c3)cc2)[C@@H](CO)N1C(=O)NC1CCCC1
rescue of myotube length ([1]; at 19.5 µM (top of the series)): -4.89% (inactive)

C[C@@H]1CN([C@H](C)CO)C(=O)c2cccc(NC(=O)c3nc4ccccc4s3)c2O[C@@H]1CN(C)Cc1ccc(C(=O)Nc2ccccc2N)cc1
AC40 [2]: 1.79 µM

N#C[C@H]1[C@H](c2ccc(C#CCC3CCCC3)cc2)[C@@H](CO)N1C(=O)CN1CCOCC1
rescue of myotube length ([1]; at 19.5 µM (top of the series)): 14.6% (inactive)

C[C@@H]1CN([C@@H](C)CO)C(=O)c2cc(NC(=O)Cc3cn(C)c4ccccc34)ccc2O[C@H]1CN(C)Cc1ccc(C(=O)Nc2ccccc2N)cc1
AC40 [2]: 10.9 µM

N#C[C@@H]1[C@@H](c2ccc(-c3cccc(F)c3)cc2)[C@H](CO)N1C(=O)c1cccnc1
rescue of myotube length ([1]; at 19.5 µM (top of the series)): 12.6% (inactive)

C[C@H]1CN([C@@H](C)CO)C(=O)Cc2cc(NC(=O)CCCCCC(=O)Nc3ccccc3N)ccc2O[C@H]1CN(C)Cc1ccc(Oc2ccccc2)cc1
AC40 [2]: 3.07 µM

O=C(C[C@H]1CC[C@@H]2[C@H](COC[C@H](O)CN2CCC(F)(F)F)O1)NCc1ccc(Oc2ccccc2)cc1
rescue of myotube length ([1]; at 19.5 µM (top of the series)): 5.97% (inactive)

COc1ccc(CN(C)C[C@H]2Oc3ccc(NS(=O)(=O)c4ccc(Cl)cc4)cc3CC(=O)N([C@@H](C)CO)C[C@@H]2C)cc1
rescue of myotube length ([1]; at 19.5 µM (top of the series)): -19% (inactive)

N#C[C@@H]1[C@@H](c2ccccc2-c2ccc(F)cc2)[C@H](CO)N1C(=O)NC1CCCC1
rescue of myotube length ([1]; at 19.5 µM (top of the series)): 15.4% (inactive)

Cc1noc(C)c1S(=O)(=O)Nc1ccc2c(c1)CC(=O)N([C@H](C)CO)C[C@@H](C)[C@@H](CN(C)Cc1ccc(-c3ccccc3)cc1)O2
rescue of myotube length ([1]; at 21 µM (top of the series)): -14.9% (inactive)

C[C@H]1CN([C@@H](C)CO)C(=O)Cc2cc(NC(=O)CCCCCC(=O)Nc3ccccc3N)ccc2O[C@H]1CN(C)Cc1ccccc1
rescue of myotube length ([1]; at 18 µM (top of the series)): 21.7% (inactive)

C[C@@H]1CN([C@@H](C)CO)C(=O)Cc2cc(NC(=O)CCCCCC(=O)Nc3ccccc3N)ccc2O[C@@H]1CN(C)Cc1ccc(Oc2ccccc2)cc1
rescue of myotube length ([1]; at 21 µM (top of the series)): -5.63% (inactive)

CN(C)C(=O)c1cccc(-c2ccc([C@@H]3[C@@H](C#N)N(C(=O)C4CCCC4)[C@@H]3CO)cc2)c1
rescue of myotube length ([1]; at 19.5 µM (top of the series)): 13.3% (inactive)

COc1ccc(S(=O)(=O)Nc2cccc3c2O[C@H](CN(C)C(=O)Nc2ccc(F)cc2)[C@H](C)CN([C@@H](C)CO)C3=O)cc1
rescue of myotube length ([1]; at 19.5 µM (top of the series)): -2.59% (inactive)

COc1ccc(C#Cc2cnc3c(c2)C(=O)N([C@H](C)CO)C[C@H](C)[C@@H](CN(C)C(=O)Nc2cccc(OC)c2)O3)cc1
rescue of myotube length ([1]; at 19.5 µM (top of the series)): 30.4% (inactive)

Cc1ccc(S(=O)(=O)N(C)C[C@@H]2Oc3ccc(NS(=O)(=O)c4ccc(Cl)cc4)cc3C(=O)N([C@H](C)CO)C[C@@H]2C)cc1
rescue of myotube length ([1]; at 19.5 µM (top of the series)): 3.15% (inactive)

COc1ccc(S(=O)(=O)Nc2ccc3c(c2)CC(=O)N([C@H](C)CO)C[C@H](C)[C@@H](CN(C)Cc2ccc(Cl)c(Cl)c2)O3)cc1
rescue of myotube length ([1]; at 19.5 µM (top of the series)): -14.2% (inactive)

CCS(=O)(=O)N1[C@H](C#N)[C@@H](c2ccc(-c3cccc(F)c3)cc2)[C@@H]1CO
rescue of myotube length ([1]; at 21 µM (top of the series)): 16.6% (inactive)

C[C@@H]1CN([C@H](C)CO)C(=O)Cc2cc(NC(=O)CCCCCC(=O)Nc3ccccc3N)ccc2O[C@@H]1CN(C)Cc1ccc(Oc2ccccc2)cc1
rescue of myotube length ([1]; at 19.5 µM (top of the series)): -9.32% (inactive)

C[C@@H]1CN([C@H](C)CO)C(=O)Cc2cc(NS(=O)(=O)c3cn(C)cn3)ccc2O[C@@H]1CN(C)Cc1ccc(Cl)c(Cl)c1
rescue of myotube length ([1]; at 19.5 µM (top of the series)): 24% (inactive)

N#C[C@@H]1[C@@H](c2ccc(C#Cc3cccnc3)cc2)[C@@H](CO)N1C(=O)C1CCCC1
rescue of myotube length ([1]; at 19.5 µM (top of the series)): 5.74% (inactive)

C[C@H](CO)N1C[C@H](C)[C@@H](CN(C)Cc2ccc(Oc3ccccc3)cc2)Oc2c(NC(=O)Nc3cccc4ccccc34)cccc2C1=O
rescue of myotube length ([1]; at 19.5 µM (top of the series)): 14.7% (inactive)

COc1ccc(-c2ccc([C@@H]3[C@@H](C#N)N(C(=O)NC4CCCC4)[C@H]3CO)cc2)cc1
rescue of myotube length ([1]; at 19.5 µM (top of the series)): 7.03% (inactive)

N#C[C@H]1[C@H](c2ccc(C#Cc3ccc(F)cc3)cc2)[C@H](CO)N1c1nc(-c2ccccc2)cs1
rescue of myotube length ([1]; at 19.5 µM (top of the series)): 25.1% (inactive)

COCC(=O)N1[C@H](C#N)[C@@H](c2ccc(-c3cccc(F)c3)cc2)[C@@H]1CO
rescue of myotube length ([1]; at 21 µM (top of the series)): 4.32% (inactive)
